Results published in patent US20170008888A1 (KYORIN PHARMACEUTICAL CO., LTD., priority 2014, published 2017).
Where two headings read alike, the source gives them in different places.

What was measured:
CECR2 = target: T1, CECR2 (Homo sapiens, UniProt Q9BXF3); test: Bromodomain binding assay: CECR2
T1 construct: T7 phage strains displaying bromodomains were grown in parallel; made in house; host or cells: E. coli host derived from BL21, infected with T7 phage
Procedure: (§1) T7 phage strains displaying bromodomains were grown in parallel in 24-well blocks in an E. coli host derived from the BL21 strain. E. coli were grown to log-phase and infected with T7 phage from a frozen stock (multiplicity of infection=0.4) and incubated with shaking at 32° C. until lysis (90-150 minutes). The lysates were centrifuged (5,000×g) and filtered (0.2 μm) to remove cell debris. […] The liganded beads were blocked with excess biotin and washed with blocking buffer (SeaBlock (Pierce), 1% BSA, 0.05 Tween 20, 1 mM DTT) to remove unbound ligand and to reduce non-specific phage binding. […] Test compounds (T62 and 46) were prepared as 1000× stocks in 100% DMSO and subsequently diluted 1:10 in monoethylene glycol (MEG) to create stocks at 100× the screening concentration (resulting stock solution is 10% DMSO/90% MEG). The compounds were then diluted directly into the assays such that the final concentration of DMSO and MEG were 0.1% and 0.9%, respectively. All reactions were performed in polystyrene 96-well plates in a final volume of 0.135 ml. […] The bromodomain concentration in the eluates was measured by qPCR. Compounds were assayed for binding activity against a panel of 40 bromodomain-containing proteins.

PCAF = target: T2, PCAF (Homo sapiens, UniProt Q92831); test: Bromodomain binding assay: PCAF
T2 construct: made in house; host or cells: E. coli host derived from the BL21 strain (T7 phage lysate)
Procedure: as §1

ATAD2B = target: T3, ATAD2B (Homo sapiens, UniProt Q9ULI0); test: Bromodomain binding assay: ATAD2B
T3 construct: T7 phage strains displaying bromodomains were grown in parallel; made in house; host or cells: E. coli host derived from BL21, infected with T7 phage
Procedure: as §1

human PBMCs = test: Cytokine response by primary human PBMCs stimulated with PMA/ionomycin or LPS; type: cell-based; settings: PBMC
Procedure: Freshly isolated human PBMCs were purchased from Astarte Biologics (Redmond, Wash.). Cells were seeded at 2e6 cells/ml in RPMI 1640 (Life Technologies, Grand Island, N.Y.) containing 10% (v/v) charcoal-dextran treated, heat inactivated FBS (Omega Scientific, Tarzana, Calif.), 0.05 mM 2-Mercaptoethanol (Sigma-Aldrich, St. Louis, Mo.), and 1×Pen/Strep Amphotericin B (Lonza, Allendale, N.J.). Cells were pre-treated with 0.1% DMSO or with test compounds for 1 h at 37° C. in a humidified atmosphere at 5% CO2. Compounds were tested at 10 μM down by ⅕ in a 4-point serial dilution series. Cells were then stimulated with either 50 ng/ml phorbol 12-myristate 13-acetate (PMA)(Sigma-Aldrich)+1 μg/ml ionomycin (Life Technologies) or with 100 ng/ml LPS from E. coli 0111:B4 (EMD Millipore, Billerica, Mass.) for 20 h at 37° C. in a humidified atmosphere at 5% CO2. Supernatant was collected and analyzed using the Bio-Plex Pro Human Cytokine 17-Plex Panel (Bio-Rad Laboratories, Hercules, Calif.) as per manufacturer's protocols. Magnetic beads were read on the Bio-Plex MAGPIX multiplex reader instrument using the accompanying xPONENT 4.2 acquisition software (Bio-Rad Laboratories). Data were analyzed via the Bio-Plex Manager software v6.1 (Bio-Rad Laboratories).

BRD9 = target: T4, BRD9 (Homo sapiens, UniProt Q9H8M2); test: Bromodomain binding assay: BRD9
T4 construct: T7 phage strains displaying bromodomains were grown in parallel; made in house; host or cells: E. coli host derived from BL21, infected with T7 phage
Procedure: as §1

cynomolgus monkey PBMCs = test: Cytokine response by primary cynomolgus monkey PBMCs stimulated with LPS; type: cell-based, cynomolgus monkey (M. fascicularis); settings: Macaca fascicularis, PBMC, 100 ng/ml LPS 20 h
Procedure: Freshly isolated cynomolgus monkey (M. fascicularis) peripheral blood mononuclear cells (PBMCs) were purchased from SNBL (Everett, Wash.). Cells were seeded at 1.8e6 cells/ml in RPMI 1640 (Life Technologies, Grand Island, N.Y.) containing 10% (v/v) charcoal-dextran treated, heat inactivated FBS (Omega Scientific, Tarzana, Calif.), 0.05 mM 2-Mercaptoethanol (Sigma-Aldrich, St. Louis, Mo.), and 1×Pen/Strep Amphotericin B (Lonza, Allendale, N.J.). Cells were pre-treated with 0.1% DMSO or with a test compound for 1 h at 37° C. in a humidified atmosphere at 5% CO2. Compounds were tested at 10 μM down by ⅕ in a 4-point serial dilution series. Cells were then stimulated with 100 ng/ml LPS from E. coli 0111:B4 (EMD Millipore, Billerica, Mass.) for 20 h at 37° C. in a humidified atmosphere at 5% CO2. Supernatant was collected and analyzed using the Milliplex Map Non-human Primate Cytokine Magnetic Bead Panel Kit (EMD Millipore) as per manufacturer's protocols. Magnetic beads were read on the Bio-Plex MAGPIX multiplex reader instrument using the accompanying xPONENT 4.2 acquisition software (Bio-Rad Laboratories, Hercules, Calif.). Data were analyzed via the Bio-Plex Manager software v6.1 (Bio-Rad Laboratories).

BRD7 = target: T5, BRD7 (Homo sapiens, UniProt Q9NPI1); test: Bromodomain binding assay: BRD7
T5 construct: T7 phage strains displaying bromodomains were grown in parallel; made in house; host or cells: E. coli host derived from BL21, infected with T7 phage
Procedure: as §1

BRD4 = target: T6, BRD4 (Homo sapiens, UniProt O60885); test: Bromodomain binding assay: BRD4
T6 construct: read out by qPCR of the phage DNA
Procedure: as §1

T4 sequence (Q9H8M2 136-240 limits assumed, species assumed): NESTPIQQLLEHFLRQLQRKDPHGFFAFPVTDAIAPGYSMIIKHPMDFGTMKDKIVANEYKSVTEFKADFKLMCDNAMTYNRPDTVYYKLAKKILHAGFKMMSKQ
T2 sequence (Q92831 723-827 limits assumed): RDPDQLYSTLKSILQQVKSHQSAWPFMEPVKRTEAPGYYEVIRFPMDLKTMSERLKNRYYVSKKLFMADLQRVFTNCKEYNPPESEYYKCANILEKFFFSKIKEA
T5 sequence (Q9NPI1 131-235 limits assumed, species assumed): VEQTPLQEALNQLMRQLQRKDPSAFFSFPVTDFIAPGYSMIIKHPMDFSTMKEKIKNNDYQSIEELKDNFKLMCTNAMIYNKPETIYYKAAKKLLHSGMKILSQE
T1 sequence (Q9BXF3 434-538 limits assumed, species assumed): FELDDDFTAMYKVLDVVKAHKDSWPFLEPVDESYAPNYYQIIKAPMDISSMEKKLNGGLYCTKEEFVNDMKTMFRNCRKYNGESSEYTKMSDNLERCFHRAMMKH
T3 sequence (Q9ULI0 951-1066 limits assumed, species assumed): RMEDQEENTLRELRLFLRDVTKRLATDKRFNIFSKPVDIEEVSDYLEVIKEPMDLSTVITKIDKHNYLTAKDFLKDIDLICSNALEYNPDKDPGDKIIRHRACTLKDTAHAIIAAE

## CCOc1cc(C(=O)N2CCC(N3CCCC3)CC2)ccc1Nc1cc2c(cn1)N(C)C(=O)c1ccccc1N2C [Compound 46, 3-(2-Ethoxy-4-(4-(pyrrolidin-1-yl)piperidine-1-carbonyl)phenylamino)-5,11-dimethyl-5H-benzo[e]pyrido[3,4-b][1,4]diazepin-10(11H)-one]
CECR2
  Kd: > 20000 nM
PCAF
  Kd: > 20000 nM
ATAD2B
  Kd: > 20000 nM
Human PBMCs; 100 ng/ml LPS 20 h, read-out: EC50 (μM) under LPS stimulation, G-CSF
  EC50: 2.52 µM
Human PBMCs; 100 ng/ml LPS 20 h, read-out: EC50 (μM) under LPS stimulation, GM-CSF
  EC50: 2.14 µM
Human PBMCs; 100 ng/ml LPS 20 h, read-out: EC50 (μM) under LPS stimulation, IFNγ
  EC50: 0.63 µM
Human PBMCs; 100 ng/ml LPS 20 h, read-out: EC50 (μM) under LPS stimulation, IL-1β
  EC50: 1.65 µM
Human PBMCs; 100 ng/ml LPS 20 h, read-out: EC50 (μM) under LPS stimulation, IL-2
  EC50: 3.12 µM
Human PBMCs; 100 ng/ml LPS 20 h, read-out: EC50 (μM) under LPS stimulation, IL-4
  EC50: 5.15 µM
Human PBMCs; 100 ng/ml LPS 20 h, read-out: EC50 (μM) under LPS stimulation, IL-6
  EC50: 2.07 µM
Human PBMCs; 100 ng/ml LPS 20 h, read-out: EC50 (μM) under LPS stimulation, IL-7
  EC50: 4.21 µM
Human PBMCs; 100 ng/ml LPS 20 h, read-out: EC50 (μM) under LPS stimulation, IL-10
  EC50: 0.467 µM
Human PBMCs; 100 ng/ml LPS 20 h, read-out: EC50 (μM) under LPS stimulation, IL-12
  EC50: 0.713 µM
Human PBMCs; 100 ng/ml LPS 20 h, read-out: EC50 (μM) under LPS stimulation, IL-13
  EC50: 3.12 µM
Human PBMCs; 100 ng/ml LPS 20 h, read-out: EC50 (μM) under LPS stimulation, IL-17A
  EC50: > 10 µM
Human PBMCs; 100 ng/ml LPS 20 h, read-out: EC50 (μM) under LPS stimulation, MCP-1
  EC50: 0.104 µM
Human PBMCs; 100 ng/ml LPS 20 h, read-out: EC50 (μM) under LPS stimulation, TNFα
  EC50: 0.124 µM
Human PBMCs; PMA/ionomycin 20 h, read-out: EC50 (μM) under PMA/ionomycin stimulation, GM-CSF
  EC50: 3.27 µM
Human PBMCs; PMA/ionomycin 20 h, read-out: EC50 (μM) under PMA/ionomycin stimulation, IL-4
  EC50: > 10 µM
Human PBMCs; PMA/ionomycin 20 h, read-out: EC50 (μM) under PMA/ionomycin stimulation, IL-5
  EC50: 3.16 µM
Human PBMCs; PMA/ionomycin 20 h, read-out: EC50 (μM) under PMA/ionomycin stimulation, IL-6
  EC50: 0.9 µM
Human PBMCs; PMA/ionomycin 20 h, read-out: EC50 (μM) under PMA/ionomycin stimulation, IL-7
  EC50: > 10 µM
Human PBMCs; PMA/ionomycin 20 h, read-out: EC50 (μM) under PMA/ionomycin stimulation, IL-10
  EC50: 0.181 µM
Human PBMCs; PMA/ionomycin 20 h, read-out: EC50 (μM) under PMA/ionomycin stimulation, IL-12
  EC50: > 10 µM
Human PBMCs; PMA/ionomycin 20 h, read-out: EC50 (μM) under PMA/ionomycin stimulation, IL-13
  EC50: 4.77 µM
Human PBMCs; PMA/ionomycin 20 h, read-out: EC50 (μM) under PMA/ionomycin stimulation, IL-17A
  EC50: > 10 µM
Human PBMCs; PMA/ionomycin 20 h, read-out: EC50 (μM) under PMA/ionomycin stimulation, MCP-1
  EC50: 0.143 µM
Human PBMCs; PMA/ionomycin 20 h, read-out: EC50 (μM) under PMA/ionomycin stimulation, MIP-1β
  EC50: 8.07 µM
Human PBMCs; PMA/ionomycin 20 h, read-out: EC50 (μM) under PMA/ionomycin stimulation, TNFα
  EC50: 4.14 µM
BRD9
  Kd: > 20000 nM
Cynomolgus monkey PBMCs; read-out: EC50 (μM) under LPS stimulation, G-CSF
  EC50: 0.26 µM
Cynomolgus monkey PBMCs; read-out: EC50 (μM) under LPS stimulation, GM-CSF
  EC50: 0.18 µM
Cynomolgus monkey PBMCs; read-out: EC50 (μM) under LPS stimulation, IFN-γ
  EC50: 0.28 µM
Cynomolgus monkey PBMCs; read-out: EC50 (μM) under LPS stimulation, IL-1ra
  EC50: 0.32 µM
Cynomolgus monkey PBMCs; read-out: EC50 (μM) under LPS stimulation, IL-1β
  EC50: 0.2 µM
Cynomolgus monkey PBMCs; read-out: EC50 (μM) under LPS stimulation, IL-4
  EC50: 0.48 µM
Cynomolgus monkey PBMCs; read-out: EC50 (μM) under LPS stimulation, IL-6
  EC50: 0.6 µM
Cynomolgus monkey PBMCs; read-out: EC50 (μM) under LPS stimulation, IL-8
  EC50: 0.35 µM
Cynomolgus monkey PBMCs; read-out: EC50 (μM) under LPS stimulation, IL-10
  EC50: 0.31 µM
Cynomolgus monkey PBMCs; read-out: EC50 (μM) under LPS stimulation, IL-12/IL-23 (p40)
  EC50: 0.36 µM
Cynomolgus monkey PBMCs; read-out: EC50 (μM) under LPS stimulation, MCP-1
  EC50: 0.13 µM
Cynomolgus monkey PBMCs; read-out: EC50 (μM) under LPS stimulation, MIP-1α
  EC50: 0.78 µM
Cynomolgus monkey PBMCs; read-out: EC50 (μM) under LPS stimulation, MIP-1β
  EC50: 2.2 µM
Cynomolgus monkey PBMCs; read-out: EC50 (μM) under LPS stimulation, TNF-α
  EC50: 0.24 µM
Cynomolgus monkey PBMCs; read-out: EC50 (μM) under LPS stimulation, VEGF
  EC50: 0.45 µM
Cynomolgus monkey PBMCs; read-out: EC50 (μM) under LPS stimulation, sCD40L
  EC50: 0.41 µM
BRD7
  Kd: > 20000 nM
BRD4
  Kd: 41 nM
